From patent US5149632A, “Method for the detection of molds in foodstuffs and human and animal body fluids” (De Staat Der Nedelranden Vertengwoordigd Door De Minister …, priority 1988, dated 1992)

What was measured:
[1] = target: rabbit anti-EPS antibodies; assay: competition ELISA: inhibition of binding of rabbit antibodies to EPS (FIG. 3); details: binding of antibodies evoked in rabbits to EPS; for 50 per cent inhibition concentration: FIG. 3, EPS species not stated
Description: (§1) The inhibition characteristics were determined using a "competition" enzyme-linked immunosorbent assay (ELISA). Microtiter polyvinyl wells (Cooke, Dynatech) were coated with polysaccharides which had been isolated from culture fluids of moulds. For this purpose 0.1 ml of 0.07 M phosphate buffer, pH 7.2, with 0.15 M NaCl (PBS) and 1 μg polysaccharide were added to each well of the plate. After incubating for one night with shaking at 20° C., the wells were washed under a continuous stream of tap water with 0.05% Tween 20 for 0.5 min. A prepared mixture of 50 μl antibodies (rabbit IgG and human sera respectively), diluted in PBS, which contained 0.05% Tween 20 and 2% bovine serum albumin, and 50 μl inhibitor, which was diluted in the same buffer, were then added. After an incubation time of 60 minutes the wells were washed in the manner described above. The quantity of antibodies which was absorbed on the polysaccharides was determined with sheep-anti-rabbit-globulins and with sheep-anti-human-globulins respectively which were conjugated to peroxidase. For this purpose 0.1 ml conjugate diluted in PBS, which contained 0.05% Tween 20, was added to each well (dilution was checked using the checker board titration). The incubation and the washing were carried out in the manner described for the prepared test sample (mixture of serum or IgG and inhibitor).
(§2) The enzyme reaction was determined spectrophotometrically at 449 nm after adding a solution of 5-amino-salicylic acid and H2 O2 (0.1 ml 0.07% 5-amino-salicylic acid, pH 6.0, and 0.005% H2 O2 were added to each well) and an incubation for 30 minutes at 20° C.
The human serum and rabbit IgG solutions were diluted to concentrations at which the extinction coefficients without inhibitor start to decrease (extinction value approximately 0.70). Methyl-β-D-galactofuranoside and the dimers to heptamers inclusive of (1-5)-coupled β-D-galactofuranosides were used as inhibitors. […] The percentage inhibition was calculated as 100--100 (extinction with inhibitor - extinction without inhibitor).

[2] = system: human antibody binding to extracellular polysaccharides of Penicillium and Aspergillus species; assay: competition ELISA: inhibition of human antibody binding of 40 serum samples to EPS; details: 40 human serum samples
Description: A total of 40 serum samples were collected arbitrarily from healthy Dutch males and females aged between 15 and 65.
as §1, §2
The human serum and rabbit IgG solutions were diluted to concentrations at which the extinction coefficients without inhibitor start to decrease (extinction value approximately 0.70). Methyl-β-D-galactofuranoside and the dimers to heptamers inclusive of (1-5)-coupled β-D-galactofuranosides were used as inhibitors. The inhibition effect of dimers of (1-2)-, (1-3)- and (1-6)-coupled β-D-galactofuranoside was also investigated (see Table B). The percentage inhibition was calculated as 100--100 (extinction with inhibitor - extinction without inhibitor).
The inhibition of the human antibody binding to EPS of moulds was tested with 40 serum samples using the tetramer of (1-5)-coupled β-D-galactofuranoside as inhibitor. The EPS in these tests originated from P. digitatum, P. cyclopium, P. dierckxii, P. funiculosum, A. niger, A. fumigatus and A. repens. Antibodies against P. funiculosum were not detectable in any serum sample, while antibodies against the other EPS derivatives were present in all 40 serum samples. The titers (reciprocal value of the dilution which gives the extinction equal to the mean value for 10 blank samples+2.81×standard deviation of these blank samples; confidence limit 99%), were in a range from 400 to 6,000. There was a significant correlation 99%) between the presence of antibodies in each serum and against the various Penicillium/Aspergillus EPS derivatives which were tested (Spearman Rank correlation test).

[3] = system: rabbit IgG anti-EPS; assay: specific inhibition test in sandwich ELISA on walnut and herb samples; format: binding; details: 50 μg/ml inhibitor
Description: A sandwich ELISA was used to ascertain whether (1-5)-coupled β-D-galactofuranosyl radicals were capable of binding antibodies. 0.1 ml portions containing 10 μg/ml rabbit IgG anti-EPS, which was diluted in PBS, were introduced into wells of polyvinyl plates and incubated overnight with shaking at 20° C. After washing in the manner described above, 0.1 ml samples containing β-(1-5)coupled galactofuranosyl radicals in PBS with 0.05% Tween 20 and 2% bovine serum albumin were added. After an incubation time of 60 minutes the plates were washed. 0.1 ml of an optimum dilution (=dilution was checked using the checker board titration) of rabbit IgG anti-EPS, conjugated with peroxidase, diluted in PBS with 0.05% Tween 20 was then added to each well. The incubation and the washing were carried out in the manner described above. The enzyme reaction was also determined in the manner described above.
In addition an immunological determination, described under (F), of Penicillium and Aspergillus species was carried out on 16 samples of walnuts and 9 samples of herbs, use being made of rabbit IgG and, respectively 50 μg/ml of a framer of (1-5)-coupled β-D-galactofuranoside per test sample. The EPS antigen possibly present in the abovementioned products was extracted by boiling with a phosphate-buffered physiological saline solution.

| Molecule | 50 per cent inhibition concentration [1] | concentration giving complete inhibition (100%) [1] [µg/mL] | Number of samples with an inhibition of 25% ([2]; inhibitor 4 μg/ml) | Number of samples with an inhibition of 50% ([2]; inhibitor 4 μg/ml) | Number of samples with an inhibition of 90% ([2]; inhibitor 4 μg/ml) | Number of samples with an inhibition of 25% ([2]; inhibitor 20 μg/ml) | Number of samples with an inhibition of 50% ([2]; inhibitor 20 μg/ml) | Number of samples with an inhibition of 90% ([2]; inhibitor 20 μg/ml) | Number of samples with an inhibition of 25% ([2]; inhibitor 100 μg/ml) | Number of samples with an inhibition of 50% ([2]; inhibitor 100 μg/ml) | Number of samples with an inhibition of 90% ([2]; inhibitor 100 μg/ml) | Number of samples with an inhibition of 25% ([2]; inhibitor 500 μg/ml) | Number of samples with an inhibition of 50% ([2]; inhibitor 500 μg/ml) | Number of samples with an inhibition of 90% ([2]; inhibitor 500 μg/ml) | Number of samples with inhibition >50% ([3]; Herbs, 4 samples, ELISA titer >50,000) | Number of samples with inhibition >50% ([3]; Herbs, 5 samples, ELISA titer 5000-50,000) | Number of samples with inhibition >50% ([3]; Nuts, 3 samples, ELISA titer 100-500) | Number of samples with inhibition >50% ([3]; Nuts, 4 samples, ELISA titer 5000-50,000) | Number of samples with inhibition >50% ([3]; Nuts, 9 samples, ELISA titer 500-5000) |
| --- | --- | --- | --- | --- | --- | --- | --- | --- | --- | --- | --- | --- | --- | --- | --- | --- | --- | --- | --- |
| CO[C@@H]1O[C@@H]([C@H](O)CO)[C@H](O)[C@H]1O [monomer, Methyl β-D-galactofuranoside] | approximately 10,000 μg/ml | – | – | – | – | – | – | – | – | – | – | – | – | – | – | – | – | – | – |
| tetramer of (1-5)-coupled β-D-galactofuranoside | 30 µg/mL | 100 | 15 | 0 | 0 | 34 | 12 | 0 | 36 | 32 | 0 | 37 | 36 | 15 | 4 | 5 | 3 | 4 | 7 |
